Test results as given in ChEMBL document CHEMBL1131221, “2'-C-Methyl analogues of selective adenosine receptor agonists: synthesis and binding studies” (J Med Chem, 1998).

What was measured:
Adenosine receptor A2a = Adenosine receptor A2a (Homo sapiens, UniProt P29274)
Description: Inhibitory activity at Adenosine A2A receptor by inhibition of [3H]-CGS- 21680 binding to bovine striatal membranes.

[1] = Inhibitory selectivity at Adenosine 2A receptor compared to Adenosine 1 receptor.
[2] = Inhibitory selectivity at Adenosine A3 receptor compared to Adenosine 1 receptor.
Adenosine receptor A1 = molecular target: T1, Adenosine receptor A1 (Bos taurus, UniProt P28190)
T1 sequence (P28190 whole entry): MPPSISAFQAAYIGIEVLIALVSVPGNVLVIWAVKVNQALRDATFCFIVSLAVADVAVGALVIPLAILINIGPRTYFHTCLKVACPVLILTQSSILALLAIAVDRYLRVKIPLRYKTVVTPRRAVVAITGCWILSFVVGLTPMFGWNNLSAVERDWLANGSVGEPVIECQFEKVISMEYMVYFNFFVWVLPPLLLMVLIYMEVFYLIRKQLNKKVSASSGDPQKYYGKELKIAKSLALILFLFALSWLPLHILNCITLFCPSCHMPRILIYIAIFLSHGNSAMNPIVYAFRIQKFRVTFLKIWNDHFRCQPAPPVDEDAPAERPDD
Description: Inhibitory activity at Adenosine A1 receptor by inhibition of [3H]CHA binding to bovine brain cortical membranes.

Adenosine receptor A3 = molecular target: T2, Adenosine receptor A3 (Rattus norvegicus, UniProt P28647); test: Inhibitory activity against Adenosine A3 receptor by inhibiting specific [3H](R)-PIA binding to rat testis membranes; parameters: species or system Membrane
T2 sequence (P28647 whole entry): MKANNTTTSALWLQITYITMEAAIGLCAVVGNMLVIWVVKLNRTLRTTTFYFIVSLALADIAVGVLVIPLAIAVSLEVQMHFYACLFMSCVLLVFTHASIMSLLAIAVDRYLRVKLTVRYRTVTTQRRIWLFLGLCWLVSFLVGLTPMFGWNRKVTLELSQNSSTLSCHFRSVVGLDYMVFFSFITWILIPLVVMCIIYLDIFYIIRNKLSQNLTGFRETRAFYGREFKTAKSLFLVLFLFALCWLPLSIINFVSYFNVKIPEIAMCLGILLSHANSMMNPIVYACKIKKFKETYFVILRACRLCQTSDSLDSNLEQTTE

[3] = Inhibitory selectivity at Adenosine A3 receptor compared to Adenosine 2A receptor.
[4] = molecular target: T3, Adenosine receptor A3 (Rattus norvegicus) (UniProt P28647); test: Inhibitory activity against Adenosine A3 receptor by inhibition of [3H](R)-PIA binding to rat testis membranes; format: cell membranes; details: Membrane, concentration not given here
T3 sequence (whole entry): T2 sequence (P28647 whole entry)

Rattus norvegicus [5] = species: Rattus norvegicus; test: Maximal % inhibition of adenylyl cyclase activity in rat cortical membranes at a concentration of 10 uM.; format: functional
Rattus norvegicus [6] = species: Rattus norvegicus; test: The compound was tested for the concentration to inhibit 50% of Adenylyl cyclase activity in rat cortical membranes.; format: functional
Rattus norvegicus [7] = species: Rattus norvegicus; test: (§1) Inhibitory activity against Adenylyl cyclase in rat cortical membranes in the presence of 2''-IB-Ado at concentration 30 nM; format: functional
Rattus norvegicus [8] = species: Rattus norvegicus; test: (§2) Inhibitory activity against Adenylyl cyclase in rat cortical membranes in the presence of 2''-Me-CCPA at concentration 30 nM; format: functional
Rattus norvegicus [9] = species: Rattus norvegicus; test: (§3) Inhibitory activity against Adenylyl cyclase in rat cortical membranes in the presence of 2''-Me-CPA at concentration 50 nM; format: functional
Rattus norvegicus [10] = species: Rattus norvegicus; test: as §2; format: functional; remark: listed apart in the source
Rattus norvegicus [11] = species: Rattus norvegicus; test: as §1; format: functional; remark: listed apart in the source
Rattus norvegicus [12] = species: Rattus norvegicus; test: as §3; format: functional; remark: listed apart in the source

Chain of Adenosine receptor A2a (P29274 whole entry): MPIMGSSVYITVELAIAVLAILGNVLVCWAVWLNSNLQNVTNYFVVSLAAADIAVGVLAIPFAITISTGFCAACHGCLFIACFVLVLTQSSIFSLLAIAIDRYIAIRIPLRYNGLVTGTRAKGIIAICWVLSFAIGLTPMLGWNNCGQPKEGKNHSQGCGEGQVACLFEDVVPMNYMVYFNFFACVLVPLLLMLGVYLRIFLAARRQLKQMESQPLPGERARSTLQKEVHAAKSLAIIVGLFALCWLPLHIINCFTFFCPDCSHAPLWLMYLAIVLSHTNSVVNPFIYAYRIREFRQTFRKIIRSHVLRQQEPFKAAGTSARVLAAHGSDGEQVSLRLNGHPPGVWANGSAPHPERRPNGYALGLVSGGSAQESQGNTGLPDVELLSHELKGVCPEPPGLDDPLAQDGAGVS

| Compound | Ki (Adenosine receptor A2a) | Ki (Adenosine receptor A1) | Ki (Adenosine receptor A3) | Max inhibition (Rattus norvegicus [5]) | IC50 (Rattus norvegicus [6]) | other results |
| --- | --- | --- | --- | --- | --- | --- |
| Nc1nc(Cl)nc2c1ncn2[C@@H]1O[C@H](CO)[C@@H](O)[C@H]1O | 120 nM | 20.2 nM | 3200 nM |  |  | Selectivity [1]: 5.9; Selectivity [2]: 158; Selectivity [3]: 26.6 |
| OC[C@H]1O[C@@H](n2cnc3c(NCc4cccc(I)c4)ncnc32)[C@H](O)[C@@H]1O |  | 18.6 nM |  |  |  |  |
| C[C@@]1(O)[C@H](O)[C@@H](CO)O[C@H]1n1cnc2c(N)ncnc21 |  |  |  |  |  | inhibition [4]: 0% |
| C[C@@H](Cc1ccccc1)Nc1ncnc2c1ncn2C1O[C@H](CO)[C@@H](O)[C@@]1(C)O (stereo partly drawn) |  | 50 nM | 10000 nM |  |  |  |
| C[C@@]1(O)[C@H](O)[C@@H](CO)O[C@H]1n1cnc2c(NCc3cccc(I)c3)ncnc21 |  | 20.1 nM |  | 10.9% | 1.6 nM |  |
| C[C@@H](Cc1ccccc1)Nc1ncnc2c1ncn2[C@@H]1O[C@H](CO)[C@@H](O)[C@H]1O [(S)-PIA] |  |  | 241 nM |  |  |  |
| OC[C@H]1O[C@@H](n2cnc3c(NC4CCCC4)ncnc32)[C@H](O)[C@@H]1O [N6-CYCLOPENTYLADENOSINE] | 385 nM |  |  | 15.5% | 11.6 nM |  |
| CNC(=O)[C@H]1O[C@@H](n2cnc3c(NCc4cccc(I)c4)ncnc32)[C@H](O)[C@@H]1O [IB-MECA] |  | 33.1 nM |  |  |  |  |
| OC[C@H]1O[C@@H](n2cnc3c(NC4CCCCC4)ncnc32)[C@H](O)[C@@H]1O |  |  |  | 16.2% | 1.4 nM | IC50 (Rattus norvegicus [7]): 1.5 nM; Max inhibition (Rattus norvegicus [8]): 16.1%; IC50 (Rattus norvegicus [9]): 1.4 nM; IC50 (Rattus norvegicus [10]): 1.6 nM; Max inhibition (Rattus norvegicus [11]): 16%; Max inhibition (Rattus norvegicus [12]): 16.2% |
| C[C@@]1(O)[C@@H](CO)O[C@@H](n2cnc3c(N)ncnc32)[C@@H]1O |  | 49500 nM |  |  |  | inhibition [4]: 8% |
| CNC(=O)[C@H]1OC(n2cnc3c(NCc4cccc(I)c4)ncnc32)[C@](C)(O)[C@@H]1O (stereo partly drawn) | 1530 nM | 254 nM | 320 nM |  |  | Selectivity [1]: 6; Selectivity [2]: 1.2; Selectivity [3]: 0.2 |
| C[C@]1(O)C(n2cnc3c(N)nc(Cl)nc32)O[C@H](CO)[C@H]1O (stereo partly drawn) |  | 533 nM |  |  |  | inhibition [4]: 10% |
| C[C@@]1(O)[C@H](O)[C@@H](CO)O[C@H]1n1cnc2c(NC3CCCC3)nc(Cl)nc21 |  | 1.8 nM | 5000 nM | 15.1% | 13.1 nM |  |
| OC[C@H]1O[C@@H](n2cnc3c(NC4CCCC4)nc(Cl)nc32)[C@H](O)[C@@H]1O | 580 nM | 0.35 nM |  |  |  |  |
| C[C@H](Cc1ccccc1)Nc1ncnc2c1ncn2[C@@H]1O[C@H](CO)[C@@H](O)[C@@]1(C)O | 7440 nM | 4.7 nM | 1080 nM | 13.7% | 1.6 nM |  |
| C[C@H](Cc1ccccc1)Nc1ncnc2c1ncn2[C@@H]1O[C@H](CO)[C@@H](O)[C@H]1O [(R)-PIA] |  |  | 53 nM |  |  |  |
| C[C@@]1(O)[C@H](O)[C@@H](CO)O[C@H]1n1cnc2c(NC3CCCC3)ncnc21 |  | 9.5 nM | 208 nM | 11% | 2.3 nM |  |
| CCNC(=O)[C@H]1O[C@@H](n2cnc3c(N)ncnc32)[C@](C)(O)[C@@H]1O | 218 nM | 142 nM | 550 nM |  |  | Selectivity [1]: 1.5; Selectivity [2]: 3.8; Selectivity [3]: 2.5 |
